Columns and labels:
[1] = tested on: vaso-occlusive crises; conditions: sickle cell disease; cited from earlier work
[2] = tested on: blood pressure; conditions: 3 pivotal trials, 2,734 patients with osteoarthritis of the hip or knee; cited from earlier work
[3] = tested on: Nitrite; assay: Plasma nitrite levels after intravenous administration in Sickle Cell mouse model (thrombin challenge); format: in vivo; conditions: Homozygous Sickle Cell transgenic mice, 15 mg/kg intravenous, at one hour after thrombin (FIG. 1)
Protocol: (§1) This trial was conducted to assess the efficacy of 4-(nitrooxy)butyl-(2S)-2-(6-methoxy-2-naphthyl) propanoate (naproxcinod) to increase Nitrite (a precursor to NO), and cGMP in Homozygous Townes Sickle Cell transgenic mice.
(§2) Homozygous Sickle Cell transgenic mice were treated with either 4-(nitrooxy)butyl-(2S)-2-(6-methoxy-2-naphthyl) propanoate (naproxcinod) (15 mg/kg) or naproxen (15 mg/kg—as a control) or saline (as a vehicle control) by intravenous injection. After one hour, the mice were injected with thrombin (1 u/20 g) to induce platelet activation. Blood was drawn at […] after thrombin administration. Plasma nitrite levels were measured as a marker of nitric oxide bioavailability. cGMP levels were measured after addition of IBMX (3-Isobutyl-1-methylxanthine) (100 uM) to prevent cGMP degradation. Platelets were isolated and activation measured by surface expression of p-selectin.

[4] = tested on: cGMP; assay: cGMP levels after intravenous administration in Sickle Cell mouse model (thrombin challenge); format: in vivo, mice; conditions: for cGMP levels compared to thrombin alone or naproxen administration: Homozygous Sickle Cell transgenic mice, 15 mg/kg intravenous, p<0.01 (FIG. 2)
Protocol: as §1, §2

[5] = tested on: osteoarthritis (OA) of the knee; conditions: human studies, OA of the knee patients; cited from earlier work
[6] = approved package insert (Novartis, 2019); cited from earlier work

Molecule: NC(=O)NO [Droxia, hydroxyurea]
- frequency of vaso-occlusive crises [1]: reduce the frequency

Molecule: NC(=O)CC[C@H](N)C(=O)O [Endari, L-glutamine]
- frequency of vaso-occlusive crises [1]: reduce the frequency

Molecule: COc1ccc2cc([C@H](C)C(=O)OCCCCO[N+](=O)[O-])ccc2c1 [naproxcinod, 4-(nitrooxy)butyl-(2S)-2-(6-methoxy-2-naphthyl) propanoate]
- hypertensive burden induced by most NSAIDs [2]: reduce some of the hypertensive burden
- nitrite concentration compared to thrombin alone or naproxen administration [3]: statistically greater
- cGMP levels compared to thrombin alone or naproxen administration ([4]; at 30 minutes after thrombin): significantly increased
- cGMP levels compared to thrombin alone or naproxen administration ([4]; at 60 minutes after thrombin): significantly increased
- cyclic guanosine monophosphate level (cGMP level) ([4]; Sickle cell animal model, summary statement): able to increase
- management of the signs and symptoms of OA [5]: clinical efficacy and safety

B1: crizanlizumab-tmca (antibody, chains of the INN, looked up, V domains shown)
VH: QVQLVQSGAEVKKPGASVKVSCKVSGYTFTSYDINWVRQAPGKGLEWMGWIYPGDGSIKYNEKFKGRVTMTVDKSTDTAYMELSSLRSEDTAVYYCARRGEYGNYEGAMDYWGQGTLVTVSS
VL: DIQMTQSPSSLSASVGDRVTITCKASQSVDYDGHSYMNWYQQKPGKAPKLLIYAASNLESGVPSRFSGSGSGTDFTLTISSLQPEDFATYYCQQSDENPLTFGGGTKVEIK
notes: FDA-approved drug for vaso-occlusive crises complication in sickle cell disease
- incidence rate of arthralgia [6]: 18%
- incidence rate of back pain [6]: 15%
- frequency of vaso-occlusive crises [1]: reduce the frequency
